Source: patent US20080287537A1, “Composition, Particularly a Cosmetic Composition, Comprising ((Dialkylamino)Alkoxy) Ethanol Ester” (L'OREAL, priority 2004, published 2008)

How the values were obtained:
SKNSH nerve cells = assay: Inhibition of calcium flux (IC50Ca2+) on SKNSH nerve cells; type: cell-based; conditions: Homo sapiens, SK-N-SH, concentration which inhibits release of Ca2+ by 50%
Description: (§1) In order for a substance to be recognized as a calcium-channel inhibitor, it must be able to reduce the intracellular calcium concentration or reduce the binding of calcium to intracellular proteins, such as, for example, calmodulin, such as is described in particular by Galizzi, J. P. et al., J. Biol. Chem., 1987, 262 p. 6947; by Y. Okamiya et al., Eur. J. Pharmacol., 1991, 205, p. 49; by J. A. Wagner et al., J. Neurosci., 1988, 8, p. 3354; by H. R. Lee et al., Life Sci., 1984, 35, p. 721; by Schoemaker H. and Lauger S., Eur. J. Pharmacol., 1985, 111, p. 273 or by I. J. Reynolds et al., J. Pharmacol. Exp. Ther., 1986, 237, p. 731.
(§2) The Applicant determined the IC50Ca2+ for inhibition of calcium flux of three compounds according to the invention using the protocol shown in these documents. IC50Ca2+ represents the concentration which inhibits release of Ca^2+ by 50%.

[1] = test system: cells resulting from HFDa skin fibroblasts; assay: Inhibition of calcium flux (IC50Ca2+) on cells from HFDa skin fibroblasts; type: cell-based; conditions: Skin fibroblast, concentration which inhibits release of Ca2+ by 50%
Description: as §1, §2

[2] = test system: Ca2+ channel (L, verapamil site); assay: Competitive inhibition of [3H]-(-)-D888 binding to L-type calcium channels, rat cerebral cortex homogenates; conditions: 1 μM in DMSO; [3H]-(-)-D888 0.5 nM; 60 min/22° C.
Description: The experimental conditions are as follows:
D888, which is [^3H]-(−)-desmethoxyverapamil, acts as radiolabelled specific ligand and D600, which is (±)-methoxyverapamil hydrochloride, acts as reference molecule.
The specific binding of a ligand (labelled D888) to the receptors (L-type calcium channels, verapamil site) is defined as the difference between the total binding and the non-specific binding determined in the presence of an excess of cold (nonradioactive) ligand. The results are expressed as percentage of inhibition of the specific binding of the control in the presence of the compound tested.

[3] = test system: human striated muscle cells innervated with explants of rat embryo spinal ganglia and spinal cord; assay: Nerve/muscle coculture model, contractions of muscle fibres; type: cell-based; conditions: earlier demonstration by the Applicant Company, concentration not given
Description: The mixture of compounds of Example 2 was tested on a model of nerve/muscle coculture which makes it possible to recreate a motor arc by innervating human striated muscle cells with explants of rat embryo spinal ganglia and spinal cord.
Human muscle cells, resulting from samples of striated muscles from a healthy donor, are inoculated in wells with a cross section of 1.8 cm^2 (24-well culture dishes). After culturing for 10 days, these cells form a monolayer and fuse. At this stage, spinal cord explants from rat embryos aged 13 days comprising the spinal ganglia are deposited on the culture.
The growth of the neurites is visible outside the spinal cord explant after culturing for one day. The first contractions of the muscle fibres are observed after coculturing for 5 to 6 days and, after 3 weeks, all the muscle fibres in the vicinity of the explants are contracting.
The cocultures are used after 21 days, when the muscle fibres are striated and have mature differentiated neuromuscular junctions.
A muscle fibre having regular contractions (at least 60 contractions per minute) is then selected from three different culture wells and the number of contractions is counted over 30 seconds. […] At the end of incubation, the number of contractions is again counted over 30 seconds. […]

[4] = Antiwrinkle activity in vivo; conditions: earlier demonstration, no details

`CCCCCCCCCC(=O)OCCOCCN(CC)CC` [((Diethylamino)ethoxy)ethyl decanoate] gave an IC50 (SKNSH nerve cells) of 26 µM.
In the case of `CCCCCCCCCCCC(=O)OCCOCCN(CC)CC` [((Diethylamino)ethoxy)ethyl laurate, ((diethylamino)ethoxy)ethyl laurate], the IC50 [1] is reported as 13 µM, the “percentage of inhibition of the specific binding of the control” value [2] is reported as 31% and the IC50 (SKNSH nerve cells) is reported as 11 µM.
For `CCCCCCCCCCCCCCCC(=O)OCCOCCN(CC)CC` [((Diethylamino)ethoxy)ethyl palmitate], the IC50 [1] was 14 µM and the IC50 (SKNSH nerve cells) was 24 µM.
For `CCCCCCCCCCCCCCCCCC(=O)OCCOCCN(CC)CC` [((Diethylamino)ethoxy)ethyl stearate], the IC50 (SKNSH nerve cells) was 37 µM.
With `CN1C(=O)CN=C(c2ccccc2)c2cc(Cl)ccc21` [diazepam] the “contractions of the muscle fibres” value [3] was “inhibited the contractions of the muscle fibres” and the antiwrinkle activity [4] was “demonstrated in vivo”.
